Source: patent publication US12551458B2, “Topical pharmaceutical composition containing phospholipids” (EGIS GYÓGYSZERGYÁR ZRT., priority 2021, dated 2026)

What was measured:
[1] = tested on: CCI operated paw of rats (neuropathic pain); assay: Rat chronic constriction injury (CCI) model, paw withdrawal threshold with electronic von Frey device; format: in vivo, Wistar rats; details: oral 16.66 mg/kg
From the text: Furthermore, based on the article Bennett G J, at al (Pain., A peripheral mononeuropathy in rat that produces disorders of pain sensation like those seen in man. 1988 April; 33(1):87-107) we have developed a method for the examination of the compositions of the present invention. Thus, we have examined the compositions according to the present invention also with a different model for measuring the alleviation of the peripheral neuropathic pain also. Namely, we have carried out examinations on rats using Chronic constriction injury (CCI) model. Three weeks following nerve injury rats were assessed for hind paw mechanical withdrawal thresholds. The paw withdrawal threshold (PWT) was determined with an Electronic von Frey device according to the modified up-down method of Dixon (Efficient analysis of experimental observations., Annu Rev Pharmacol Toxicol. 1980; 20:441-62). […] The method and results are shown in example 3 and on FIG. 9.
Briefly, under isoflurane anesthesia small blunt dissection was made into the skin of rat right thigh then three loosely constrictive ligatures were placed around common sciatic nerve (chronic constriction injury CCI). Three weeks following nerve injury rats were assessed for hind paw mechanical withdrawal thresholds. […]

[2] = tested on: neuropathic pain in a human patient; details: topical aqueous solution; cited from earlier work
[3] = Pharmacokinetic studies in rats (blood levels of pregabalin)
[4] = tested on: allodynia in nerve-ligated mice; details: cited from earlier work
pain = details: compositions containing 1 and 3% of pregabalin; cited from earlier work
[5] = Solubility of pregabalin in solvents; details: any solvents

CC(C)C[C@H](CN)CC(=O)O [pregabalin]
Reduction of hypersensitivity after oral administration [1]: not able to reduce hypersensitivity | Time for which neuropathic pain was reduced [2]: 6 h | Blood levels after oral administration ([3]; oral 16.66 mg/kg): relatively high blood levels | Amount entering the bloodstream during topical treatment ([3]; topical treatment): very small amounts | Time of maximum allodynia alleviating effect ([4]; topical 2.5% aqueous solution without other ingredients): 1 h | Alleviating effect after 3 hours and 6 hours ([4]; topical 2.5% aqueous solution): essentially disappeared | Time after which the pain alleviation effect decreased (pain): 1.5 to 2 h | Solubility [5]: poor
